Measurements reported in patent publication US20120225062A1 (priority 2011, published 2012).
pEC50, pIC50: −log10 of the molar value.

Key:
[1] = tested on: KMS11 (human myeloma cell line); test: Cell Proliferation Assay (CellTiter-Glo, 3 days); format: cell-based; details: KMS-11, 72 h, KMS11-luc cells
How it was run: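 EC50 from CellTiter-Glo luminescence after 3-day, 37° C compound treatment of KMS11 cells seeded at 2000 per well in IMDM plus 10% FBS.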

Pim 2 = Pim 2 (Homo sapiens, UniProt Q9P1W9); test: Pim 2 AlphaScreen assay (high ATP)
Protocol: The activity of Pim 1, Pim 2, & Pim 3 is measured using a homogeneous bead based system quantifying the amount of phosphorylated peptide substrate resulting from kinase-catalyzed phosphoryl transfer to a peptide substrate. Compounds to be tested are dissolved in 100% DMSO and directly distributed to a white 384-well plate at 0.25 μl per well. […] This is followed by the addition of 5 μl/well of Pim 1, Pim 2 or Pim 3 kinase in assay buffer (concentrations described below). Final assay concentrations (described below) are in 2.5% DMSO. The reactions are performed for ˜2 hours, then stopped by the addition of 10 μl of 0.75 μg/ml anti-phospho Ser/Thr antibody (Cell Signaling), 10 μg/ml Protein A AlphaScreen beads (Perkin Elmer), and 10 μg/ml streptavidin coated AlphaScreen beads in stop/detection buffer (50 mM EDTA, 95 mM Tris, pH=7.5, 0.01% Tween-20). The stopped reactions are incubated overnight in the dark. The phosphorylated peptide is detected via an oxygen anion initiated chemiluminescence/fluorescence cascade using the Envision plate reader (Perkin Elmer).

Pim 1 = Pim 1 (Homo sapiens, UniProt P11309); test: Pim 1 AlphaScreen assay (high ATP)
Pim 3 = Pim 3 (Homo sapiens, UniProt Q86V86); test: Pim 3 AlphaScreen assay (high ATP)

Chain of Pim 2 (Q9P1W9 whole entry): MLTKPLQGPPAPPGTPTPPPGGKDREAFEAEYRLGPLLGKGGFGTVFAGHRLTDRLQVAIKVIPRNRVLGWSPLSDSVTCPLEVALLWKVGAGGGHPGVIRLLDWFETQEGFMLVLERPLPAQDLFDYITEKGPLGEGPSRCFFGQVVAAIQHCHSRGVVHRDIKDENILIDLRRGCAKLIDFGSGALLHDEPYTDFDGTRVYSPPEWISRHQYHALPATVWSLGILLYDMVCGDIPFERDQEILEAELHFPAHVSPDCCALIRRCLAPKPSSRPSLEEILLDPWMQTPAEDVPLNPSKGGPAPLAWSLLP
Chain of Pim 1 (P11309 whole entry): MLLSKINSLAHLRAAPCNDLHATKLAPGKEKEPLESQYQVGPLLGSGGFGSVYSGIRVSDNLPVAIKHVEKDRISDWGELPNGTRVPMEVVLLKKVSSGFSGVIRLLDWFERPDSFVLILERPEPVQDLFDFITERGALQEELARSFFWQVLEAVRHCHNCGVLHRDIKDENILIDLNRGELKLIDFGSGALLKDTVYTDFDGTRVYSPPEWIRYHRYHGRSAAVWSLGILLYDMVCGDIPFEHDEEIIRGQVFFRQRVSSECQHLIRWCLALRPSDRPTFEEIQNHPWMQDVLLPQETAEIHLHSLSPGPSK

Row | SMILES | pEC50 [1] | pIC50 (Pim 2) | pIC50 (Pim 1) | pIC50 (Pim 3)
1 | C[C@H]1CN(c2ccncc2NC(=O)c2ccc(F)c(-c3c(F)cc(OCCO)cc3F)n2)C[C@@H](N)[C@@H]1O [Example 21, N-(4-((3R,4R,5S)-3-amino-4-hydroxy-5-methylpiperidin-1-yl)pyridin-3-yl)-6-(2,6-difluoro-4-(2-hydroxyethoxy)phenyl)-5-fluoropicolinamide] | 7.89 | 8.92 | 10.70 | 9.47
2 | COCCOc1ccc(F)c(-c2nc(C(=O)Nc3cnccc3N3C[C@@H](N)[C@H](O)[C@@H](C)C3)ccc2F)c1F [Example 17, N-(4-((3R,4R,5S)-3-amino-4-hydroxy-5-methylpiperidin-1-yl)pyridin-3-yl)-6-(2,6-difluoro-3-(2-methoxyethoxy)phenyl)-5-fluoropicolinamide] | 7.89 | 8.72 | 10.52 | 9.46
3 | C[C@H]1CN(c2ccncc2NC(=O)c2ccc(F)c(-c3c(F)cc(OCC4CCOCC4)cc3F)n2)C[C@@H](N)[C@@H]1O [Example 200, N-(4-((3R,4R,5S)-3-amino-4-hydroxy-5-methylpiperidin-1-yl)pyridin-3-yl)-6-(2,6-difluoro-4-((tetrahydro-2H-pyran-4-yl)methoxy)phenyl)-5-fluoropicolinamide] | 7.09 | 9.25 | 11.00 | 9.72
4 | C[C@H]1CN(c2ccncc2NC(=O)c2ccc(F)c(-c3c(F)cc([C@H](O)CO)cc3F)n2)C[C@@H](N)[C@@H]1O [Example 233, N-(4-((3R,4R,5S)-3-amino-4-hydroxy-5-methylpiperidin-1-yl)pyridin-3-yl)-6-(4-((S)-1,2-dihydroxyethyl)-2,6-difluorophenyl)-5-fluoropicolinamide] | 7.70 | 8.66 | 10.40 | 8.99
5 | C[C@@H]1C[C@H](N)C[C@H](c2ccncc2NC(=O)c2nc(-c3c(F)cc(C4(O)CCC4)cc3F)c(F)cc2N)C1 [Example 220, 3-amino-N-(4-((1R,3S,5S)-3-amino-5-methylcyclohexyl)pyridin-3-yl)-6-(2,6-difluoro-4-(1-hydroxycyclobutyl)phenyl)-5-fluoropicolinamide] | 8.10 | 9.19 | 11.00 | 9.85

Other lines, results leading:

Row | pEC50 [1] | pIC50 (Pim 2) | pIC50 (Pim 1) | pIC50 (Pim 3) | SMILES
6 | 6.78 | 8.61 | 10.40 | 8.88 | CCOCc1cc(F)c(-c2nc(C(=O)Nc3cnccc3[C@H]3C[C@@H](N)[C@H](O)[C@@H](C)C3)ccc2F)c(F)c1 [Example 83, N-(4-((1R,3R,4R,5S)-3-amino-4-hydroxy-5-methylcyclohexyl)pyridin-3-yl)-6-(4-(ethoxymethyl)-2,6-difluorophenyl)-5-fluoropicolinamide]
7 | 6.84 | 9.04 | 10.70 | 9.24 | C[C@H]1C[C@@H](c2ccncc2NC(=O)c2ccc(F)c(-c3c(F)cc4c(c3F)OCC4)n2)C[C@@H](N)[C@@H]1O [Example 180, N-(4-((1R,3R,4R,5S)-3-amino-4-hydroxy-5-methylcyclohexyl)pyridin-3-yl)-6-(5,7-difluoro-2,3-dihydrobenzofuran-6-yl)-5-fluoropicolinamide]
8 | 7.26 | 8.32 | 10.30 | 8.54 | COC1(c2cc(F)c(-c3nc(C(=O)Nc4cnccc4[C@H]4C[C@@H](N)[C@H](O)[C@@H](C)C4)ccc3F)c(F)c2)COC1 [Example 52, N-(4-((1R,3R,4R,5S)-3-amino-4-hydroxy-5-methylcyclohexyl)pyridin-3-yl)-6-(2,6-difluoro-4-(3-methoxyoxetan-3-yl)phenyl)-5-fluoropicolinamide]
9 | 7.55 | 8.56 | 10.70 | 9.35 | C[C@H]1C[C@@H](c2ccncc2NC(=O)c2ccc(F)c(-c3c(F)cc(OC4CCOCC4)cc3F)n2)C[C@@H](N)[C@@H]1O [Example 59]
